Results published in patent US20090136434A1, “Tyrosinase enzyme inhibitors from fungal hydroxylation of tibolone” (HEJ Research Institute, priority 2007, published 2009).

Columns and labels:
mushroom tyrosinase = test: Tyrosinase inhibition assay (o-diphenolase activity, L-DOPA as substrate); assay type: biochemical; settings: mushroom tyrosinase 30 units (28 nM), L-DOPA 0.5 mM, pH 6.8, absorbance at 475 nm, mean ± S.E.M., at least triplicates; read-out: IC50 ± SEM (in μM), tyrosinase inhibitory activity
Description: Tyrosinase inhibition assays were performed in 96-well microplate format using SpectraMax 340 microplate reader (Molecular Devices, CA, USA) according to the method developed by Hearing (1987). Briefly, first the compounds were screened for the o-diphenolase inhibitory activity of tyrosinase using L-DOPA as substrate. […] Compounds were dissolved in methanol to a concentration of 2.5%. 30 units of mushroom tyrosinase (28 nM from Sigma Chemical Co., USA) first preincubated with the compounds in […] Na-phosphate buffer (pH 6.8) for 10 min at 25° C. Then, the L-DOPA (0.5 mM) was added to the reaction mixture and the enzyme reaction was monitored by measuring the change in absorbance at 475 nm (at 37° C.) due to the formation of the DOPA chrome for 10 min. The percent inhibition of the enzyme was calculated as =[…], wherein the B and S are absorbance for the blank and samples, respectively. After screening, the compounds median inhibitory concentration (IC50) was also calculated. […] (Hearing et al., Int J Biochem, 19(12): 1141-71987).

Salmonella typhimurium = settings: studies referred to, no data of the applicant; cited from earlier work

SMILES	IC50 (mushroom tyrosinase) [µM]	melting point [°C]	mutagenic activity in a Salmonella typhimurium assay (Salmonella typhimurium)
C#CC1(O)CC(O)C2C3C(C)CC4=C(CCC(=O)C4)C3CCC21C (stereo not drawn) [Metabolite 2, 15β-Hydroxytibolone]	50.86 ± 0.36		
C#CC1(O)CCC2C3C(C)CC4=CC(=O)CCC4(O)C3CCC21C (stereo not drawn) [Metabolite 4, 10β-Hydroxy-Δ^4-Tibolone]	119.4 ± 0.2		
C#CC1(O)CCC2C3C(CCC21C)C1=C(CC(=O)CC1)C(O)C3C (stereo not drawn) [Metabolite 1, 6β-Hydroxytibolone]	7.45 ± 0.21	202 to 205	
O=c1cc(CO)occ1O [Kojic acid]			weak mutagenic activity
N[C@@H](Cn1ccc(=O)c(O)c1)C(=O)O [L-Mimosine, L-mimosine, reference compound]	3.68 ± 0.022		
C#CC1(O)CCC2C3C(C)C(OC)C4=CC(=O)CCC4C3CCC21C (stereo not drawn) [Metabolite 8, 6β-Methoxy-Δ^4-Tibolone]	25.15 ± 0.24		
C#CC1(O)CCC2C3C(C)C(O)C4=CC(=O)CCC4C3CCC21C (stereo not drawn) [Metabolite 7, 6β-Hydroxy-Δ^4-Tibolone]	36.14 ± 0.21		
C#CC1(O)CCC2C3C(C)CC4=CC(=O)CCC4C3CCC21C (stereo not shown) [Metabolite 3, Δ^4-Tibolone]	8.19 ± 0.54		
C#CC1(O)CC(O)C2C3C(C)CC4=C(CCC(=O)C4)C3C(O)CC21C (stereo not drawn) [Metabolite 5, 11α,15β-Dihydroxytibolone]	5.12 ± 0.67	208 to 210	
C#CC1(O)CC(O)C2C3C(C)C=C4CC(=O)CCC4C3C(O)CC21C (stereo not drawn) [Metabolite 6, 11α,15β-Dihydroxy-Δ^5-Tibolone]	7.1 ± 0.13	207 to 211	
